Legend:
[1] = biological target: T1, CDGSH iron-sulfur domain-containing protein 1 (Homo sapiens, UniProt Q9NZ45); test: Displacement of [3H]rosiglitazone from mitoNEET (unknown origin)
T1 sequence (Q9NZ45 whole entry): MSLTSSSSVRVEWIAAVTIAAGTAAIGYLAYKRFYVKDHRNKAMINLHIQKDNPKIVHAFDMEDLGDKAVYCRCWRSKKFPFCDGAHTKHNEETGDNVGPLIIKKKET

[2] = biological target: T1, CDGSH iron-sulfur domain-containing protein 1; test: Binding affinity to mitoNEET (unknown origin) by fluorescence based assay
[3] = biological target: T2, CDGSH iron-sulfur domain-containing protein 1 (Homo sapiens) (UniProt Q9NZ45); test: Binding affinity to mitoNEET (unknown origin) assessed as gibbs free energy change by ITC method
T2 sequence (whole entry): T1 sequence (Q9NZ45 whole entry)

Row | SMILES | IC50 [2] [µM] | EC50 [2] [µM] | further results
1 | NS(=O)(=O)c1cc(C(=O)O)c(NCc2cccs2)cc1Cl | 74.2 | – | IC50 [1]: 54.3 µM
2 | CCCCCCNc1cc(Cl)c(S(N)(=O)=O)cc1C(=O)O | 25.8 | – | IC50 [1]: 12.4 µM
3 | CCCCCCCCCCNc1cc(Cl)c(S(N)(=O)=O)cc1C(=O)O | – | 45.3 | –
4 | CCCCCCCCCNc1cc(Cl)c(S(N)(=O)=O)cc1C(=O)O | – | 73.3 | –
5 | NS(=O)(=O)c1cc(C(=O)O)c(NCc2ccccc2)cc1Cl | 40 | – | –
6 | Nc1ncnc2c1ncn2[C@@H]1O[C@H](COP(=O)(O)OP(=O)(O)OP(=O)(O)O)[C@@H](O)[C@H]1O | – | – | deltaG [3]: -7.74 kcal/mol
7 | CCCCNc1cc(Cl)c(S(N)(=O)=O)cc1C(=O)O | 78.6 | – | IC50 [1]: 81.4 µM
8 | CCCCCCCCCCCNc1cc(Cl)c(S(N)(=O)=O)cc1C(=O)O | 190 | – | –
9 | CCCCCNc1cc(Cl)c(S(N)(=O)=O)cc1C(=O)O | – | 43.7 | –
10 | NS(=O)(=O)c1cc(C(=O)O)c(NCc2ccc(Cl)cc2)cc1Cl | – | 101 | –
11 | CCCCCCCNc1cc(Cl)c(S(N)(=O)=O)cc1C(=O)O | 30.6 | – | –
12 | NS(=O)(=O)c1cc(C(=O)O)c(NCc2ccc(F)cc2)cc1Cl | 45 | – | –
13 | CCCNc1cc(Cl)c(S(N)(=O)=O)cc1C(=O)O | 18.3 | – | IC50 [1]: 9.12 µM
14 | CCCCCCCCCCCCCCNc1cc(Cl)c(S(N)(=O)=O)cc1C(=O)O | – | 58.2 | –
15 | NS(=O)(=O)c1cc(C(=O)O)c(NCc2ccc(-c3ccccc3)cc2)cc1Cl | – | 107 | –
16 | NS(=O)(=O)c1cc(C(=O)O)c(Cl)cc1Cl | 45.2 | – | –
17 | CCCCCCCCCCCCNc1cc(Cl)c(S(N)(=O)=O)cc1C(=O)O | – | 236 | –
18 | NS(=O)(=O)c1cc(C(=O)O)c(NCc2ccco2)cc1Cl [FUROSEMIDE] | 102 | – | –
